Assay results taken from ChEMBL document CHEMBL1201862, “PubChem BioAssay data set” (2004).
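Cultured in 96-well plates, cells were exposed to test compound for 48 hours across five concentrations. GI50 = concentration required for 50% inhibition of growth.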 Calls of active or inactive are those of the source. No stated cut-off is given here; in the data, active = GI50 up to about 1.1 µM and inactive = higher.

Columns and labels:
Assay in all cases: DTP human tumour cell line panel, 48 h
[1] = system: SF-295
[2] = system: TK-10
[3] = system: RXF 393
[4] = system: OVCAR-3
[5] = system: HOP-92
[6] = system: NCI-H522
[7] = system: SNB-75
[8] = system: ACHN
[9] = system: COLO 205
[10] = system: MOLT-4
[11] = system: A498
[12] = system: HCT-116
[13] = system: NCI-H460
[14] = system: MCF7
[15] = system: HCC 2998
[16] = system: UACC-62
[17] = system: SF-268
[18] = system: OVCAR-5
[19] = system: HOP-62
[20] = system: HT-29

Measured: GI50

CC(NNC(=O)c1cc[n+]([BH2-]C#N)cc1)c1cccc(F)c1 (centres undefined)
inactive: [1] > 100 µM | [2] > 100 µM | [3] > 100 µM | [4] > 100 µM | [5] > 100 µM | [6] > 100 µM | [7] > 100 µM | [8] > 100 µM | [9] > 100 µM | [10] > 100 µM | [11] > 100 µM | [12] > 100 µM | [13] > 100 µM | [14] > 100 µM | [15] > 100 µM | [16] > 100 µM | [17] > 100 µM | [18] > 100 µM

O=[N+]([O-])c1ccc(/C=C/c2ccc(/N=N/c3ccc(/C=C/c4ccc([N+](=O)[O-])cc4S(=O)(=O)O)c(S(=O)(=O)O)c3)cc2S(=O)(=O)O)c(S(=O)(=O)O)c1
inactive: [1] > 100 µM | [3] > 100 µM | [4] > 87.5 µM | [5] > 53.1 µM | [6] > 100 µM | [7] 61.8 µM | [9] > 100 µM | [10] > 100 µM | [19] > 100 µM | [11] > 100 µM | [12] > 100 µM | [13] > 100 µM | [14] > 100 µM | [15] 43.6 µM | [16] > 100 µM | [20] > 100 µM | [17] > 100 µM | [18] > 100 µM

Cc1nc2nnc(CCCCCCCCc3nnc4nc(C)[nH]n34)n2[nH]1
inactive: [1] > 100 µM | [2] > 100 µM | [3] > 100 µM | [4] > 100 µM | [5] > 100 µM | [6] 60.5 µM | [7] > 100 µM | [8] > 100 µM | [9] > 100 µM | [10] > 100 µM | [19] > 100 µM | [11] > 100 µM | [12] > 100 µM | [13] > 100 µM | [14] > 100 µM | [15] > 100 µM | [20] > 100 µM | [17] > 100 µM | [18] > 100 µM

Nc1nc2[nH]c(=O)cnc2c(=O)[nH]1 [ISOXANTHOPTERIN]
inactive: [1] > 125 µM | [3] > 125 µM | [4] > 125 µM | [5] > 125 µM | [6] > 19.8 µM | [7] > 125 µM | [9] > 125 µM | [10] > 125 µM | [19] > 125 µM | [11] > 125 µM | [12] > 125 µM | [13] > 125 µM | [14] > 125 µM | [15] > 125 µM | [16] > 125 µM | [20] > 125 µM | [17] > 125 µM | [18] > 99.1 µM

CO[C@@H]1C[C@H]2[C@@H]3CC[C@H]([C@H](C)CO)[C@@]3(C)CC[C@@H]2[C@@]2(C)CC[C@H]3C[C@]312
inactive: [1] 28.5 µM | [2] > 100 µM | [3] 26.2 µM | [4] > 100 µM | [5] 21 µM | [6] 56 µM | [7] 89.9 µM | [8] 33.2 µM | [9] 20.1 µM | [10] 32.5 µM | [19] > 100 µM | [11] 80.4 µM | [12] 30.2 µM | [13] 26.7 µM | [14] 19.2 µM | [15] 36.1 µM | [20] 20.7 µM | [17] 35.7 µM | [18] > 100 µM

CSc1nc2c(ncn2C2OC(CO)C(O)C(O)C2O)c(=O)n1C (centres undefined)
inactive: [1] > 100 µM | [3] > 100 µM | [4] > 100 µM | [5] > 100 µM | [6] > 100 µM | [7] > 100 µM | [9] > 100 µM | [10] > 100 µM | [19] > 100 µM | [11] > 100 µM | [12] > 100 µM | [13] > 100 µM | [14] > 100 µM | [15] > 100 µM | [16] > 100 µM | [20] > 100 µM | [17] > 100 µM | [18] > 100 µM

O=C1CC(CC(O)[C@@H]2CCCC[C@@H]2O)CC(=O)N1c1ccccc1 (some centres undefined)
inactive: [1] > 100 µM | [2] > 100 µM | [3] > 100 µM | [4] > 100 µM | [5] 83.8 µM | [6] > 100 µM | [7] > 100 µM | [8] > 100 µM | [10] > 100 µM | [19] > 100 µM | [11] > 100 µM | [12] > 100 µM | [13] > 100 µM | [14] > 100 µM | [15] > 100 µM | [16] > 100 µM | [20] > 100 µM | [17] > 100 µM | [18] > 100 µM

O=NN1C(c2ccccc2)C2CCCC(C2=O)C1c1ccccc1 (centres undefined)
inactive: [1] 30.8 µM | [3] 18.9 µM | [4] 4.82 µM | [5] 22 µM | [6] 19.1 µM | [7] 22.8 µM | [9] 17.5 µM | [10] 27.1 µM | [19] 27 µM | [11] 34 µM | [12] 25.5 µM | [13] 22 µM | [14] 20.7 µM | [15] 16.6 µM | [16] 20.4 µM | [20] 18.1 µM | [17] 49.8 µM | [18] 37.2 µM

O=C(OCc1ccccc1)C(Cc1ccc(OCc2ccccc2)cn1)NC(=O)C(F)(F)F (centres undefined)
inactive: [1] > 100 µM | [2] > 100 µM | [3] > 100 µM | [4] 71.3 µM | [5] > 100 µM | [6] 79.8 µM | [7] 3.01 µM | [8] > 100 µM | [9] 27.4 µM | [10] 33.7 µM | [19] > 100 µM | [11] > 100 µM | [12] > 100 µM | [13] > 100 µM | [14] > 10 µM | [15] > 100 µM | [20] 57.9 µM | [17] 98.2 µM | [18] > 100 µM

NNC(=O)c1c(SCc2ccccc2)nc2c3ccccc3ccn12
inactive: [1] 21.9 µM | [2] 30.9 µM | [3] 15.2 µM | [4] 2.92 µM | [5] 17 µM | [6] 15.5 µM | [8] 27.2 µM | [9] 23.9 µM | [10] 10.9 µM | [19] 10.2 µM | [11] 11.6 µM | [13] 14.8 µM | [14] 24.2 µM | [15] 46.8 µM | [16] 10.2 µM | [20] 16.5 µM | [17] 20.3 µM | [18] 20.5 µM
